Results from patent publication US12644104B2, “Detection of environmental influences by bioluminescence” (priority 2020, dated 2026).

Assays:
yeast strain BY4742 = experiment: Detection of leucine by bioluminescence of leucine-auxotrophic BY4742 carrying pRS426-Lux (Example 4); assay type: cell-based, Saccharomyces cerevisiae; conditions: CSM-Leu-URA medium, leucine added after 5 h incubation, FIG. 4
Procedure: (§1) D-Luciferin sodium salt (Carl Roth, Germany) was dissolved in 0.1 M Na2 HPO4-citrate buffer pH 5 to a final luciferin concentration of 1 mM. 100 μl of an overnight yeast culture was adjusted depending on the experimental question to a suitable starting OD600 of around 1.0 or less in CSM medium. 100 μl of yeast cells, 25 μl of a test solution (e.g., amino acid), and 25 μl of 1 mM luciferin solution were added in this order to a well of a black 96-well microtiter plate with a transparent bottom (Microplate, 96 well, PS, F-Bottom (Chimney Well) μClear®, Black, Med. Binding; Greiner bio-one, Germany) for a measurement. Measurements were performed using a Tristar2S Platereader (Berthold, Germany) at a constant temperature of 28° C.
The yeast strain BY4742 used by the inventors has several auxotrophies, including leucine auxotrophy, which makes this strain useful for leucine detection. For this purpose, the strain was grown overnight in CSM-URA medium. […] After 5 h of incubation, a defined amount of leucine was added and luminescence was subsequently measured (FIG. 4). […] The relationship between available leucine and measured bioluminescence behaves in a concentration-dependent manner within a certain concentration range, so that the leucine concentration can be correlated and measured with the bioluminescence.

[1] = test system: S. cerevisiae strain BY4742; experiment: Luminescence comparison of bacterial luciferase construct with Firefly luciferase in BY4742 (Example 2); assay type: cell-based, Saccharomyces cerevisiae
Procedure: as §1
The luciferase from Photinus pyralis was chosen for comparison because it is most commonly used in bioanalysis (see FIG. 6).
After both plasmids have the same genetic requirements, such as FBA1 promoter and terminator, the same vector backbone and were also transformed into BY4742, both plasmids could be directly compared. The experiment was performed twice with three technical replicates each time. The cultures were grown overnight at 28° C. and were each diluted with 50 μl of fresh medium (YPD medium). For the produced prototype (nucleic acid according to the invention, SEQ ID NO: 7), water was added instead of 50 μl of the luciferin solution (2 mM final concentration).
The luminescence of the Firefly luciferase is about 100,000 RLU. In contrast, the […]. After 5.4 h, only a low luminescence of 6893 can be measured (see FIG. 2D). The CSM-URA plates were photographed in daylight (FIG. 2A) and in complete darkness (FIG. 2B) by a commercial photographic camera. The naked eye was also able to perceive the light produced by the yeasts.

Compound: CC(C)C[C@H](N)C(=O)O [leucine]
- leucine concentration from which organisms grow and light signal increases regardless of concentration (yeast strain BY4742): > 49 mg/L
- leucine concentration with limiting effect on cell metabolism and maximum possible bioluminescence (yeast strain BY4742): less than 20 mg/L

Compound: Firefly luciferase: plasmid encoding Photinus pyralis luciferase under the FBA1 promoter and terminator, same pRS426 backbone
- initial luminescence ([1]; BY4742, FBA1 promoter/terminator, YPD, luciferin 2 mM added only for Firefly, FIG. 2D): 52,475 RLU
- luminescence after 5.4 h ([1]; BY4742, FIG. 2D, luciferin added only for Firefly): 6893 RLU
- luminescence after 1.7 h ([1]; BY4742, luciferin 2 mM final, FIG. 2D): 19,143 RLU
